In publication PMC8138732, “Comparative study of His- and Non-His-tagged CLIC proteins, reveals changes in their enzymatic activity” (Biochemistry and Biophysics Reports, 2021):

How the values were obtained:
non-His-tagged CLIC3 = target: T1, non-His-tagged CLIC3 (Homo sapiens, UniProt O95833); assay: HEDS assay coupled to glutathione reductase, NADPH consumption at […] nm; assay type: biochemical; conditions: 1 mM GSH fixed, 250 uM NADPH, 0.5 ug/mL GR, 10 uM enzyme, 5 mM potassium phosphate, 1 mM EDTA, pH 7, 37 C; imidazole-free storage buffer
T1 construct: E. coli BL21(DE3); Ni-NTA and SEC; reduced soluble monomer

non-His-tagged CLIC1 = non-His-tagged CLIC1 (Homo sapiens, UniProt O00299); conditions: 1 mM GSH fixed, 250 uM NADPH, 0.5 ug/mL GR, 10 uM enzyme, 5 mM potassium phosphate, 1 mM EDTA, pH 7, 37 C; imidazole-free storage buffer

T1 sequence (O95833 whole entry): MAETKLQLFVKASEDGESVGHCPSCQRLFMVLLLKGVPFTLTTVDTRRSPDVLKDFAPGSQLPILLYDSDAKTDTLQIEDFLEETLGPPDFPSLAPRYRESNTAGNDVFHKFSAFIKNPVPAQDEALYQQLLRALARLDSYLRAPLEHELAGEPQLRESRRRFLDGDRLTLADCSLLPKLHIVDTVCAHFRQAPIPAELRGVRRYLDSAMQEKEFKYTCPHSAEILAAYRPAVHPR

SMILES: OCCSSCCO [HEDS]
- Km (non-His-tagged CLIC3): 994 µM
- Km (non-His-tagged CLIC1): 2500 µM
